Structures can show the parent of a compound that is named as a salt. Where two headings read alike, the source gives them in different places. Ends that are not written are not given here.

For series [1] the following is noted: cited from earlier work.
For series [2], the system named is brain parenchyma. Particulars: awake patient, intra-arterial infusion; cited from earlier work.
The conditions of series [3]: cited from earlier work. The source holds these as a separate data set.
In series [4] the test system is rat brain. In words: Endovascular brain mapping: dye or embolic agent infused into the internal carotid artery, brains harvested to examine staining quality. Particulars: ICA infusion after blood brain barrier disruption with arabinose, dye mixed with Omnipaque. The series is classed as in vivo, Sprague Dawley rats.
Protocol: Generally, Sprague Dawley rats were anesthetized and vascular access obtained by ventral cervical cutdown. A catheter was introduced into the common carotid artery proximal to the ICA. All other branches were clamped temporarily with aneurysm clips, permitting flow to the ICA alone. The blood brain barrier was disrupted with a solution of arabinose. […] Tantalum powder was also tested without blood brain barrier disruption. The brains were harvested for examination of the quality of staining.
Using a carotid cutdown method, the CCA was exposed and a catheter was introduced into the lumen proximal to the ICA. A ligature secured the catheter within the vessel. The external carotid artery and occipital artery were clamped, preserving flow to the ICA.
To test the use of tantalum powder, the same procedure described above was performed without disruption of the blood brain barrier. A small amount of tantalum powder suspension was then injected under fluoroscopic visualization until the right hemispheric distribution was opacified.
For series [5] the following is noted: chronic subcutaneous injections; cited from earlier work.
Setting [6] is: Table 1, medium in which the fluorophore is solubilised.
Setting [7] is: Table 3, solvent or buffer named.

For the compound `CCCCCCCCCCCC(=O)Nc1ccc(-c2c3ccc(=O)cc-3oc3cc(O)ccc23)c(C(=O)O)c1` [5-dodecanoylamino-fluorescein], the Solubility result in series [1] (setting [6]) is “CDs”.

With `C=CCC1(C(C)C#CCC)C(=O)N=C(O)N(C)C1=O` (racemic) [Brevital®, Methohexital Sodium; 2,4,6 (1H, 3H, 5H) Pyrimidinetrione, 1-methyl-5-(1-methyl-2-pentynyl)-5-(2-propenyl)-, (±)-, monosodium salt], in series [2], the “duration of temporary neurological deficits after infusion” value is “resolve back to baseline within several minutes”.

Take `CC1=CC(C)=[N+]2C1=Cc1c(C)cc(C)n1[B-]2(F)F` [Tetramethyl- BODIPY ® (505/515), 4,4-difluoro-1,3,5,7-tetramethyl-4-bora-3a,4a-diaza-s-indacene]: the Solubility entry in series [1] (setting [6]) was “Cyclodextrins (CD)”.

Take “FLUO-RGGRLSYSRRRESTSTGR (not fully specified (N-terminus); printed as FLUO-RGGRLSYSRRRESTSTGR) [FLUO-L-SynB1]”: in series [1] (setting [7]), the Solubility entry is “Phosphate”.

Regarding carboxymethyl-β-cyclodextrin [CM-β-CD], the solubility in water in series [3] is listed as 50 mg/mL.

Turning to “FLUO-RRLSYSRRRF (not fully specified (N-terminus); printed as FLUO-RRLSYSRRRF) [FLUO-L-SynB3]”, in series [1] (setting [7]), the Solubility entry was “PBS”.

`CCN(Cc1cccc(S(=O)(=O)[O-])c1)c1ccc(C(=C2C=CC(=[N+](CC)Cc3cccc(S(=O)(=O)[O-])c3)C=C2)c2ccc(O)cc2S(=O)(=O)[O-])cc1.[Na+].[Na+]` [FD & C Green #3]: the figures for the “staining of the selected vascular distribution of the brain” value in series [4] and in series [4] (listed as FD&C Green #3) were “clearly stained both on the cortical surface” and “good staining of a selective vascular distribution”, respectively. In series [5], the induction of sarcomas result is “induction of sarcomas”.

For `NCc1ccc(-c2c3ccc(=O)cc-3oc3cc(O)ccc23)c(C(=O)O)c1` [5-(aminomethyl) fluorescein, hydrochloride], the Solubility result in series [1] (setting [7]) is on record as “DMF”.

For the compound `CCCCc1ccc2n1[B-](F)(F)[N+]1=C(CCCCCCCCC(=O)O)C=CC1=C2` [C4-BODIPY ® (500/510) C9, 5-butyl-4,4-difluoro-4-bora-3a,4a-diaza-s-indacene-3-nonanoic acid], the Solubility entry in series [1] (setting [6]) is listed as “CDs”.

Values taken from patent US20030236457A1, “Method of endovascular brain mapping” (priority 2002, published 2003).
